Assay results published in patent US8247211B2, “Glycopeptide antibiotics” (American Cyanamid Company, priority 2001, dated 2012).
Values after ≈ are worked out from the molar mass of the structure shown.

Key:
Streptococcus sp. = assay: In vitro antibacterial evaluation: minimum inhibitory concentration (MIC), broth dilution method; assay type: cell-based
How it was run: (§1)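 NCCLS M7-A2 broth dilution with Mueller-Hinton II, testing 64-0.06 μg/mL antibiotic against 5×10^5 CFU/mL inocula. Test strains include recent methicillin-, penicillin- or vancomycin-resistant clinical isolates. MIC is the lowest concentration preventing growth.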

[1] = test system: Staphylococcus aureus-SMITH (GC 4543); assay: Acute lethal infection in mice (ED50); assay type: in vivo; conditions: female CD-1 mice, intraperitoneal challenge, intravenous dose 30 min. after infection, 7 day survival ratios
How it was run: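 IP bacterial challenge, female CD-1 mice; inoculum lethal to untreated controls in 24-48 hr. IV dosing in saline or 5% dextrose 30 min post-infection, 5 mice/dose. ED50 from 7-day survival, 3 tests pooled.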

[2] = Anatomic pathology (heart and kidney histopathology) in mice; assay type: in vivo, CD-1 mice; conditions: 20 mg/kg intravenously daily for 9 days, microscopic histopathology on day 10
Procedure: 20-day-old CD-1 mice were divided into a vehicle control group (5 mice) and a treatment group (5 mice). Samples of glycopeptide antibiotics were administered at 20 mg/kg intravenously daily for 9 days.
Samples of tissues from necropsied mice were formalin-fixed, paraffin-embedded, sectioned, stained with hematoxylin and eosin, and examined microscopically. Histopathologic findings were recorded. These findings were subjectively graded on a scale corresponding to slight, mild, moderate, marked and severe as compared to untreated controls.

Escherichia coli = assay: In vitro antibacterial evaluation: minimum inhibitory concentration (MIC), broth dilution method; assay type: cell-based; conditions: strain GC 4560
How it was run: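 Inoculum: 5×10^5 CFU/mL. Range: 64-0.06 μg/mL. Medium: Muller-Hinton II […]; NCCLS M7-A2 broth dilution. Endpoint: lowest concentration inhibiting growth. Strains include methicillin-, penicillin- and/or vancomycin-resistant clinical isolates.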

Enterococcus sp. = assay: as above; assay type: cell-based; conditions: strain GC 4558
How it was run: as §1

[3] = Streptococcus pneumoniae (GC 1894), broth dilution, 18 hours at 35° C.

| Structure (SMILES) | MIC Streptococcus pneumoniae (GC 1894) (Streptococcus sp.; [3]) | MIC Streptococcus pneumoniae (GC 1894) (Streptococcus sp.; strain GC 1894) | median effective dose (ED50), Staphylococcus aureus-SMITH (GC 4543) [1] | Anatomical Pathology (Day 10), Heart [2] | Anatomical Pathology (Day 10), Kidney [2] | MIC Escherichia coli (GC 4560) (Escherichia coli) | MIC Enterococcus avium (GC 4558) (Enterococcus sp.) | MIC Streptococcus pneumoniae (GC 4565) (Streptococcus sp.; Streptococcus pneumoniae (GC 4565), broth dilution, 18 hours at 35° C.) | MIC Streptococcus pneumoniae (GC 4565) (Streptococcus sp.; strain GC 4565) |
| --- | --- | --- | --- | --- | --- | --- | --- | --- | --- |
| CC(c1ccccc1)C1NC(=O)CNC(=O)C(CO)NC(=O)C(C(O)C2CN(Cc3ccccc3)C(=N)N2C2OC(CO)C(O)C(O)C2O)NC(=O)C(C(O)C2CNC(=N)N2)NC(=O)C(Cc2ccc(OC3OC(CO)C(OC4OC(CO)C(O)C(O)C4O)C(O)C3O)cc2)NC1=O (stereo not drawn) [Example 59, Cyclo[glycyl-β-methylphenylalanyl-O-(4-O-hexopyranosylhexopyranosyl)tyrosyl-(2-iminoimidazolidin-4-yl)seryl-3-[1-benzyl-3-hexopyranosyl-2-iminoimidazolidin-4-yl]serylseryl]] | 64 µg/mL (≈ 46.2 µM) | 64 µg/mL (≈ 46.2 µM) | >8 | 0 | 0 | – | – | – | – |
| CC(c1ccccc1)C1NC(=O)CNC(=O)C(CO)NC(=O)C(C(O)C2CN(Cc3ccc(C(C)(C)C)cc3)C(=N)N2C2OC(CO)C(O)C(O)C2O)NC(=O)C(C(O)C2CNC(=N)N2)NC(=O)C(Cc2ccc(OC3OC(CO)C(OC4OC(CO)C(O)C(O)C4O)C(O)C3O)cc2)NC1=O (stereo not drawn) [Example 60, Cyclo[glycyl-β-methylphenylalanyl-O-(4-O-hexopyranosylhexopyranosyl)tyrosyl-(2-iminoimidazolidin-4-yl)seryl-3-[1-(4-tert-butylbenzyl)-3-hexopyranosyl-2-iminoimidazolidin-4-yl]-serylseryl]] | 64 µg/mL (≈ 44.4 µM) | 64 µg/mL (≈ 44.4 µM) | >8 | 0 | 0 | 16 µg/mL (≈ 11.1 µM) | – | – | – |
| CC(c1ccccc1)C1NC(=O)CNC(=O)C(CO)NC(=O)C(C(O)C2CN(CCCCCCCCCCCCO)C(=N)N2C2OC(CO)C(O)C(O)C2O)NC(=O)C(C(O)C2CNC(=N)N2)NC(=O)C(Cc2ccc(OC3OC(CO)C(OC4OC(CO)C(O)C(O)C4O)C(O)C3O)cc2)NC1=O (stereo not drawn) [Example 61] | 64 µg/mL (≈ 43.3 µM) | 64 µg/mL (≈ 43.3 µM) | >8 | 0 | +++ | 8 µg/mL (≈ 5.41 µM) | 64 µg/mL (≈ 43.3 µM) | 64 µg/mL (≈ 43.3 µM) | 64 µg/mL (≈ 43.3 µM) |
| CC(c1ccccc1)C1NC(=O)CNC(=O)C(CO)NC(=O)C(C(O)C2CN(Cc3ccccc3-c3ccccc3)C(=N)N2C2OC(CO)C(O)C(O)C2O)NC(=O)C(C(O)C2CNC(=N)N2)NC(=O)C(Cc2ccc(OC3OC(CO)C(OC4OC(CO)C(O)C(O)C4O)C(O)C3O)cc2)NC1=O (stereo not drawn) [Example 65] | – | – | >8 | 0 | +++ | 32 µg/mL (≈ 21.9 µM) | – | – | – |
